The values below are quoted from earlier work in patent US20040247676A1, “Use of multi-layer controlled-release tablet comprising ropinirole for the manufacture of medicament for the treatment of fibromyalgia” (priority 2001, published 2004).

Molecules are shown by their SMILES. Structures can show the parent of a compound that is named as a salt.

This data set concerns fibromyalgia. The following applies: immediate release formulation.

As to `CCCN(CCC)CCc1cccc2c1CC(=O)N2` [ropinirole hydrochloride], the “effectiveness in the treatment of fibromyalgia” value was “particularly effective”.
